Data as given in patent publication US20220347171A1, “TREATMENT OF PRURIGO NODULARIS” (TREVI THERAPEUTICS, INC., priority 2016, published 2022).
Where a name gives a salt, the structure may show the parent alone.

Test system: prurigo nodularis patients
Assay: TR03ext (Example 3): PAS prurigo lesions with excoriations/crusts; Stage 0 0%, Stage 1 1%-25%, Stage 2 26%-50%, Stage 3 51%-75%, Stage 4 76%-100%
Format: in vivo, human
Text: In some embodiments, after the treatment the patient experiences a substantial reduction of itch that is characterized by at least one category/stage improvement in Prurigo Activity Score (PAS). In particular embodiments, after the treatment the patient experiences a reduction of itch that results in at least one category/stage improvement in Prurigo Activity Score (PAS) domains of number of prurigo lesions, prurigo lesions with excoriations/crusts and/or healed prurigo lesions. The PAS consists of 7 qualitative and quantitative measurements related to the examination of the skin. Type, number, distribution, affected body parts, and quantitative number of lesions in a representative body part are documented. The biggest lesion and the most representative lesion are monitored with documentation of height and area measurements. Prurigo lesion activity is recorded as a percentages based on their stage (0-4). In some embodiments, number measurements of lesions on the body have four numerical categories: 0, 1-19, 20-100 and >100. In some embodiments, prurigo lesions with excoriations/crusts have five categories: Stage 4 (76%-100%), Stage 3 (51%-75%), Stage 2 (26%-50%), Stage 1 (1-25%) and Stage 0 (0%). In some embodiments, healed prurigo lesions have five categories: Stage 4 (0-24%), Stage 3 (25-49%), Stage 2 (50-74%), Stage 1 (75%-99%), Stage 0 (100%).
This clinical study was a Phase 2 Open Label Extension Study (clinical study TR03ext) of the randomized, double-blind, 3-parallel arm, placebo controlled dose ranging study described in Example 2. All those subjects who were randomized, and then completed Example 2 study, were eligible to participate in the Extension Study.
The primary endpoint was a description of the overall incidence and nature of Treatment-Emergent AEs (TEAES) during weeks 5-50 of the study. Exploratory efficacy endpoints included Change from Baseline patient reported outcome measures of Worst itch NRS, itchy VRS and ItchyQoL, by Treatment Period study visit and Baseline NRS score. There was also an assessment of any potential skin lesion changes over time using the metrics of the PAS.
Patients in Extension Study were titrated over a dose range of 30 mg QD to 180 mg BID based on tolerability. The selected dose range was based on Example 2 study whereby patients were titrated from a 30 mg QD dose either to 30 mg BID, 60 mg BID, 90 mg BID, 120 mg BID or a 180 mg BID dose. The highest dose proposed was 180 mg BID (360 mg daily dose), and was well below the highest recommended daily treatment of 160 mg IV (equivalent to 960 mg oral) for the current marketed parenteral administered product.
Table 15, 16 and 17 display excoriations/crusts lesion PAS data for subjects who received treatment for at least 6 months, subjects who received treatment for at least 9 months and subjects who completed 50 weeks of treatment in the study, respectively. The status of the prurigo lesions with excoriations/crusts is reported as percentages based on their stage (0-4) using a grading system: Stage 0 (0% excoriations/crusts); Stage 1 (1%-25% excoriations/crusts); Stage 2 (26%-50% excoriations/crusts); Stage 3 (51%-75% excoriations/crusts); Stage 4: (76%-100% excoriations/crusts). Thus, the higher the stage, the more severe is the prurigo skin pathology.

[1] = treatment for at least 6 months
[2] = treatment for at least 9 months

SMILES: Oc1ccc2c3c1OC1[C@@H](O)CC[C@@]4(O)[C@@H](C2)N(CC2CCC2)CC[C@]314 (stereo partly drawn) [Nalbuphine, 17-(cyclobutylmethyl)-4,5α-epoxymorphinian-3, 6α, 14-triol, hydrochloride]
- Excoriated/Crusts PAS Category Shift: Baseline Stage 2 to Last Observed Stage 3 [1]: 0 Number (%) of Subjects
- Excoriated/Crusts PAS Category Shift: Baseline Stage 2 to Last Observed Stage 4 [1]: 0 Number (%) of Subjects
- Excoriated/Crusts PAS Category Shift: Baseline Stage 3 to Last Observed Stage 0 [1]: 0 Number (%) of Subjects
- Excoriated/Crusts PAS Category Shift: Baseline Stage 3 to Last Observed Stage 1 [1]: 1 (5.9%) Number (%) of Subjects
- Excoriated/Crusts PAS Category Shift: Baseline Stage 3 to Last Observed Stage 2 [1]: 2 (11.8%) Number (%) of Subjects
- Excoriated/Crusts PAS Category Shift: Baseline Stage 3 to Last Observed Stage 3 [1]: 1 (5.9%) Number (%) of Subjects
- Excoriated/Crusts PAS Category Shift: Baseline Stage 3 to Last Observed Stage 4 [1]: 0 Number (%) of Subjects
- Excoriated/Crusts PAS Category Shift: Baseline Stage 4 to Last Observed Stage 0 [1]: 1 (5.9%) Number (%) of Subjects
- Excoriated/Crusts PAS Category Shift: Baseline Stage 4 to Last Observed Stage 1 [1]: 2 (11.8%) Number (%) of Subjects
- Excoriated/Crusts PAS Category Shift: Baseline Stage 4 to Last Observed Stage 2 [1]: 0 Number (%) of Subjects
- Excoriated/Crusts PAS Category Shift: Baseline Stage 4 to Last Observed Stage 3 [1]: 0 Number (%) of Subjects
- Excoriated/Crusts PAS Category Shift: Baseline Stage 4 to Last Observed Stage 4 [1]: 1 (5.9%) Number (%) of Subjects
- Excoriated/Crusts PAS: Last Observed PAS Result Stage 0 [1]: 3 (17.6) Number (%) of Subjects
- Excoriated/Crusts PAS: Last Observed PAS Result Stage 1 [1]: 9 (52.9) Number (%) of Subjects
- Excoriated/Crusts PAS: Last Observed PAS Result Stage 2 [1]: 2 (11.8) Number (%) of Subjects
- Excoriated/Crusts PAS: Last Observed PAS Result Stage 3 [1]: 1 (5.9) Number (%) of Subjects
- Excoriated/Crusts PAS: Last Observed PAS Result Stage 4 [1]: 2 (11.8) Number (%) of Subjects
- Excoriated/Crusts PAS Category Shift: Baseline Stage 0 to Last Observed Stage 0 [2]: 1 (7.1%) Number (%) of Subjects
- Excoriated/Crusts PAS Category Shift: Baseline Stage 0 to Last Observed Stage 1 [2]: 0 Number (%) of Subjects
- Excoriated/Crusts PAS Category Shift: Baseline Stage 0 to Last Observed Stage 2 [2]: 0 Number (%) of Subjects
- Excoriated/Crusts PAS Category Shift: Baseline Stage 0 to Last Observed Stage 3 [2]: 0 Number (%) of Subjects
- Excoriated/Crusts PAS Category Shift: Baseline Stage 0 to Last Observed Stage 4 [2]: 0 Number (%) of Subjects
- Excoriated/Crusts PAS Category Shift: Baseline Stage 1 to Last Observed Stage 0 [2]: 0 Number (%) of Subjects
- Excoriated/Crusts PAS Category Shift: Baseline Stage 1 to Last Observed Stage 1 [2]: 1 (7.1%) Number (%) of Subjects
- Excoriated/Crusts PAS Category Shift: Baseline Stage 1 to Last Observed Stage 2 [2]: 0 Number (%) of Subjects
- Excoriated/Crusts PAS Category Shift: Baseline Stage 1 to Last Observed Stage 3 [2]: 0 Number (%) of Subjects
- Excoriated/Crusts PAS Category Shift: Baseline Stage 1 to Last Observed Stage 4 [2]: 1 (7.1%) Number (%) of Subjects
- Excoriated/Crusts PAS Category Shift: Baseline Stage 2 to Last Observed Stage 0 [2]: 0 Number (%) of Subjects
- Excoriated/Crusts PAS Category Shift: Baseline Stage 2 to Last Observed Stage 1 [2]: 5 (35.7%) Number (%) of Subjects
- Excoriated/Crusts PAS Category Shift: Baseline Stage 2 to Last Observed Stage 2 [2]: 0 Number (%) of Subjects
- Excoriated/Crusts PAS Category Shift: Baseline Stage 2 to Last Observed Stage 3 [2]: 0 Number (%) of Subjects
- Excoriated/Crusts PAS Category Shift: Baseline Stage 2 to Last Observed Stage 4 [2]: 0 Number (%) of Subjects
- Excoriated/Crusts PAS Category Shift: Baseline Stage 3 to Last Observed Stage 0 [2]: 0 Number (%) of Subjects
- Excoriated/Crusts PAS Category Shift: Baseline Stage 3 to Last Observed Stage 1 [2]: 0 Number (%) of Subjects
- Excoriated/Crusts PAS Category Shift: Baseline Stage 3 to Last Observed Stage 2 [2]: 2 (14.3%) Number (%) of Subjects
- Excoriated/Crusts PAS Category Shift: Baseline Stage 3 to Last Observed Stage 3 [2]: 1 (7.1%) Number (%) of Subjects
- Excoriated/Crusts PAS Category Shift: Baseline Stage 3 to Last Observed Stage 4 [2]: 0 Number (%) of Subjects
- Excoriated/Crusts PAS Category Shift: Baseline Stage 4 to Last Observed Stage 0 [2]: 1 (7.1%) Number (%) of Subjects
- Excoriated/Crusts PAS Category Shift: Baseline Stage 4 to Last Observed Stage 1 [2]: 1 (7.1%) Number (%) of Subjects
- Excoriated/Crusts PAS Category Shift: Baseline Stage 4 to Last Observed Stage 2 [2]: 0 Number (%) of Subjects
- Excoriated/Crusts PAS Category Shift: Baseline Stage 4 to Last Observed Stage 3 [2]: 0 Number (%) of Subjects
- Excoriated/Crusts PAS Category Shift: Baseline Stage 4 to Last Observed Stage 4 [2]: 1 (7.1%) Number (%) of Subjects
- Excoriated/Crusts PAS: Last Observed PAS Result Stage 0 [2]: 2 (14.3) Number (%) of Subjects
- Excoriated/Crusts PAS: Last Observed PAS Result Stage 1 [2]: 7 (50.0) Number (%) of Subjects
- Excoriated/Crusts PAS: Last Observed PAS Result Stage 2 [2]: 2 (14.3) Number (%) of Subjects
- Excoriated/Crusts PAS: Last Observed PAS Result Stage 3 [2]: 1 (7.1) Number (%) of Subjects
- Excoriated/Crusts PAS: Last Observed PAS Result Stage 4 [2]: 2 (14.3) Number (%) of Subjects
